# Data: US8309734B2 (Hoffmann-La Roche Inc., priority 2008, dated 2012)
# Biological target: T1, human GPBAR1 receptor (Homo sapiens, UniProt Q8TDU6)
# T1 construct: expressed in transfected cells
# T1 sequence (Q8TDU6 1-330): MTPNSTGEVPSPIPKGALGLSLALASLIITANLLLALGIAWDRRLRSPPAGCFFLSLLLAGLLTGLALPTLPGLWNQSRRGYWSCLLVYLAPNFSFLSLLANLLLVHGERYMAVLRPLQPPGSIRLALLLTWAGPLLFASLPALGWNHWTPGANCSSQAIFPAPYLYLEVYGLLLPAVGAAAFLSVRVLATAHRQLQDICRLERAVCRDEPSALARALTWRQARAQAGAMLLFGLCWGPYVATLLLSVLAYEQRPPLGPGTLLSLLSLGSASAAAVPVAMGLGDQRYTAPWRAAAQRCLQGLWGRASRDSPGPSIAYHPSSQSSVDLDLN
# Assay: functional cAMP assay in CHO-dhfr(minus) cells expressing human GPBAR1 receptors
# Assay type: cell-based
# Details: cAMP increase (TR-FRET) in CHO-dhfr(minus) cells expressing human GPBAR1; compounds incubated 30 min at 30° C.
row,Structure (SMILES),EC50 [nM]
1,"O=C(O)CN1CCN(C(=O)c2cc(F)cnc2Oc2cc(Cl)ccc2Cl)c2ccccc21 [Example 155, {4-[2-(2,5-Dichloro-phenoxy)-5-fluoro-pyridine-3-carbonyl]-3,4-dihydro-2H-quinoxalin-1-yl}-acetic acid]",788
2,"CCOC(=O)CCN1CCN(C(=O)c2cc(F)cnc2Oc2cc(Cl)ccc2Cl)c2ccccc21 [Example 156, 3-{4-[2-(2,5-Dichloro-phenoxy)-5-fluoro-pyridine-3-carbonyl]-3,4-dihydro-2H-quinoxalin-1-yl}-propionic acid ethyl ester]",841
3,"CC(CN1CCN(C(=O)c2cc(F)cnc2Oc2cc(Cl)ccc2Cl)c2ccccc21)C(=O)O (stereo not drawn) [Example 157, 3-{4-[2-(2,5-Dichloro-phenoxy)-5-fluoro-pyridine-3-carbonyl]-3,4-dihydro-2H-quinoxalin-1-yl}-2-methyl-propionic acid]",1680
4,"CCOC(=O)CCCN1CCN(C(=O)c2cc(F)cnc2Oc2cc(Cl)ccc2Cl)c2ccccc21 [Example 158, 4-{4-[2-(2,5-Dichloro-phenoxy)-5-fluoro-pyridine-3-carbonyl]-3,4-dihydro-2H-quinoxalin-1-yl}-butyric acid ethyl ester]",384
5,"CCOC(=O)CCCCN1CCN(C(=O)c2cc(F)cnc2Oc2cc(Cl)ccc2Cl)c2ccccc21 [Example 159, 5-{4-[2-(2,5-Dichloro-phenoxy)-5-fluoro-pyridine-3-carbonyl]-3,4-dihydro-2H-quinoxalin-1-yl}-pentanoic acid ethyl ester]",395
6,"COC(=O)CCCCCN1CCN(C(=O)c2cc(F)cnc2Oc2cc(Cl)ccc2Cl)c2ccccc21 [Example 160, 6-{4-[2-(2,5-Dichloro-phenoxy)-5-fluoro-pyridine-3-carbonyl]-3,4-dihydro-2H-quinoxalin-1-yl}-hexanoic acid methyl ester]",724
7,"O=C(O)CCCCCN1CCN(C(=O)c2cc(F)cnc2Oc2cc(Cl)ccc2Cl)c2ccccc21 [Example 161, 6-{4-[2-(2,5-Dichloro-phenoxy)-5-fluoro-pyridine-3-carbonyl]-3,4-dihydro-2H-quinoxalin-1-yl}-hexanoic acid]",104
8,"COC(=O)c1ccc(C(=O)N2CCN(C(=O)c3cc(F)cnc3Oc3cc(Cl)ccc3Cl)c3ccccc32)cc1 [Example 162, 4-{4-[2-(2,5-Dichloro-phenoxy)-5-fluoro-pyridine-3-carbonyl]-3,4-dihydro-2H-quinoxaline-1-carbonyl}-benzoic acid methyl ester]",1160
9,"O=C(c1cccnc1Oc1cc(Cl)c(Br)cc1Cl)N1CCN(C2CC2)c2ccccc21 [Example 163, [2-(4-Bromo-2,5-dichloro-phenoxy)-pyridin-3-yl]-(4-cyclopropyl-3,4-dihydro-2H-quinoxalin-1-yl)-methanone]",54
10,"O=C(c1cccnc1Oc1cc(Cl)c(C#CCO)cc1Cl)N1CCN(C2CC2)c2ccccc21 [Example 164, (4-Cyclopropyl-3,4-dihydro-2H-quinoxalin-1-yl)-{2-[2,5-dichloro-4-(3-hydroxy-prop-1-ynyl)-phenoxy]-pyridin-3-yl}-methanone]",36
11,"O=C(c1cccnc1Oc1cc(Cl)c(Br)cc1Cl)N1CCCc2ccccc21 [Example 165, [2-(4-Bromo-2,5-dichloro-phenoxy)-pyridin-3-yl]-(3,4-dihydro-2H-quinolin-1-yl)-methanone]",340
12,"COC(=O)CCC#Cc1cc(Cl)c(Oc2ncccc2C(=O)N2CCCc3ccccc32)cc1Cl [Example 166, 5-{2,5-Dichloro-4-[3-(3,4-dihydro-2H-quinoline-1-carbonyl)-pyridin-2-yloxy]-phenyl}-pent-4-ynoic acid methyl ester]",148
13,"COC(=O)c1ccc(C#Cc2cc(Cl)c(Oc3ncccc3C(=O)N3CCN(C4CC4)c4ccccc43)cc2Cl)cc1Cl [Example 167, 2-Chloro-4-{2,5-dichloro-4-[3-(4-cyclopropyl-3,4-dihydro-2H-quinoxaline-1-carbonyl)-pyridin-2-yloxy]-phenylethynyl}-benzoic acid methyl ester]",211
14,"O=C(O)c1ccc(C#Cc2cc(Cl)c(Oc3ncccc3C(=O)N3CCN(C4CC4)c4ccccc43)cc2Cl)cc1Cl [Example 168, 2-Chloro-4-{2,5-dichloro-4-[3-(4-cyclopropyl-3,4-dihydro-2H-quinoxaline-1-carbonyl)-pyridin-2-yloxy]-phenylethynyl}-benzoic acid]",1440
15,"O=C(O)c1ccc(CCc2cc(Cl)c(Oc3ncccc3C(=O)N3CCN(C4CC4)c4ccccc43)cc2Cl)cc1Cl [Example 169, 2-Chloro-4-(2-{2,5-dichloro-4-[3-(4-cyclopropyl-3,4-dihydro-2H-quinoxaline-1-carbonyl)-pyridin-2-yloxy]-phenyl}-ethyl)-benzoic acid]",127
16,"O=C(O)c1ccc(CCc2cc(Cl)c(Oc3ncccc3C(=O)N3CCN(C4CC4)c4ccccc43)cc2Cl)cc1 [Example 170, 4-(2-{2,5-Dichloro-4-[3-(4-cyclopropyl-3,4-dihydro-2H-quinoxaline-1-carbonyl)-pyridin-2-yloxy]-phenyl}-ethyl)-benzoic acid]",69
17,"COc1cc(C(=O)O)ccc1CCc1cc(Cl)c(Oc2ncccc2C(=O)N2CCN(C3CC3)c3ccccc32)cc1Cl [Example 171, 4-(2-{2,5-Dichloro-4-[3-(4-cyclopropyl-3,4-dihydro-2H-quinoxaline-1-carbonyl)-pyridin-2-yloxy]-phenyl}-ethyl)-3-methoxy-benzoic acid]",102
18,"O=C(O)/C=C/c1cc(Cl)c(Oc2ncccc2C(=O)N2CCN(C3CC3)c3ccccc32)cc1Cl [Example 172, 3-{2,5-Dichloro-4-[3-(4-cyclopropyl-3,4-dihydro-2H-quinoxaline-1-carbonyl)-pyridin-2-yloxy]-phenyl}-acrylic acid]",132
19,"O=C(O)CCc1cc(Cl)c(Oc2ncccc2C(=O)N2CCN(C3CC3)c3ccccc32)cc1Cl [Example 173, 3-{2,5-Dichloro-4-[3-(4-cyclopropyl-3,4-dihydro-2H-quinoxaline-1-carbonyl)-pyridin-2-yloxy]-phenyl}-propionic acid]",47
20,"COC(=O)C/C=C/c1cc(Cl)c(Oc2ncccc2C(=O)N2CCN(C3CC3)c3ccccc32)cc1Cl [Example 174, 4-{2,5-Dichloro-4-[3-(4-cyclopropyl-3,4-dihydro-2H-quinoxaline-1-carbonyl)-pyridin-2-yloxy]-phenyl}-but-3-enoic acid methyl ester]",29
21,"O=C(O)C/C=C/c1cc(Cl)c(Oc2ncccc2C(=O)N2CCN(C3CC3)c3ccccc32)cc1Cl [Example 175, 4-{2,5-Dichloro-4-[3-(4-cyclopropyl-3,4-dihydro-2H-quinoxaline-1-carbonyl)-pyridin-2-yloxyl]-phenyl}-but-3-enoic acid]",843
22,"O=C(O)CCCc1cc(Cl)c(Oc2ncccc2C(=O)N2CCN(C3CC3)c3ccccc32)cc1Cl [Example 176, 4-{2,5-Dichloro-4-[3-(4-cyclopropyl-3,4-dihydro-2H-quinoxaline-1-carbonyl)-pyridin-2-yloxy]-phenyl}-butyric acid]",114
23,"O=C(O)CNC(=O)CCc1cc(Cl)c(Oc2ncccc2C(=O)N2CCN(C3CC3)c3ccccc32)cc1Cl [Example 177, (3-{2,5-Dichloro-4-[3-(4-cyclopropyl-3,4-dihydro-2H-quinoxaline-1-carbonyl)-pyridin-2-yloxy]-phenyl}-propionylamino)-acetic acid]",63
24,"CN(CC(=O)O)C(=O)CCc1cc(Cl)c(Oc2ncccc2C(=O)N2CCN(C3CC3)c3ccccc32)cc1Cl [Example 178, [(b 3-{2,5-Dichloro-4-[3-(4-cyclopropyl-3,4-dihydro-2H-quinoxaline-1-carbonyl)-pyridin-2-yloxy]-phenyl}-propionyl)-methyl-amino]-acetic acid]",96
25,"O=C(O)CCNC(=O)CCc1cc(Cl)c(Oc2ncccc2C(=O)N2CCN(C3CC3)c3ccccc32)cc1Cl [Example 179, 3-(3-{2,5-Dichloro-4-[3-(4-cyclopropyl-3,4-dihydro-2H-quinoxaline-1-carbonyl)-pyridin-2-yloxy]-phenyl}-propionylamino)-propionic acid]",41
26,"O=C(O)C1CCCN1C(=O)CCc1cc(Cl)c(Oc2ncccc2C(=O)N2CCN(C3CC3)c3ccccc32)cc1Cl (stereo not drawn) [Example 180, 1-(3-{2,5-Dichloro-4-[3-(4-cyclopropyl-3,4-dihydro-2H-quinoxaline-1-carbonyl)-pyridin-2-yloxy]-phenyl}-propionyl)-pyrrolidine-2-carboxylic acid]",71
27,"O=C(O)CCNC(=O)CCCc1cc(Cl)c(Oc2ncccc2C(=O)N2CCN(C3CC3)c3ccccc32)cc1Cl [Example 181, 3-(4-{2,5-Dichloro-4-[3-(4-cyclopropyl-3,4-dihydro-2H-quinoxaline-1-carbonyl)-pyridin-2-yloxy]-phenyl}-butyrylamino)-propionic acid]",91
28,"COC(=O)c1cc(Cl)c(Oc2ncccc2C(=O)N2CCN(C3CC3)c3ccccc32)cc1Cl [Example 182, 2,5-Dichloro-4-[3-(4-cyclopropyl-3,4-dihydro-2H-quinoxaline-1-carbonyl)-pyridin-2-yloxy]-benzoic acid methyl ester]",181
29,"COC(=O)CNC(=O)c1cc(Cl)c(Oc2ncccc2C(=O)N2CCN(C3CC3)c3ccccc32)cc1Cl [Example 183, {2,5-Dichloro-4-[3-(4-cyclopropyl-3,4-dihydro-2H-quinoxaline-1-carbonyl)-pyridin-2-yloxy]-benzoylamino}-acetic acid methyl ester]",341
30,"O=C(c1ccccc1Oc1cc(Cl)ccc1Cl)N1CCN(C2CC2)c2ccccc21 [Example 184, (4-Cyclopropyl-3,4-dihydro-2H-quinoxalin-1-yl)-[2-(2,5-dichloro-phenoxy)-phenyl]-methanone]",22
